In PubChem BioAssay (NCI):
“And” between values parts separate entries of the source, which are not always exact repeats. Equal values may be shown once.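 Grown in 96-well plates, cells were treated for 48 hours with each compound at five concentrations. Insufficient inhibition: endpoint recorded as highest concentration tested. The concentration for 50% growth inhibition is given as GI50. TGI is the concentration that stops growth completely.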

Columns and labels:
Experiment in all cases: inhibition of tumour cell growth, NCI panel, 48 h
[1] = system: DU-145 prostate
[2] = system: MDA-MB-231 breast
[3] = system: T-47D breast
[4] = system: MCF7 breast
[5] = system: MDA-MB-435

| Compound | GI50 [1] | TGI [1] | GI50 [2] | TGI [2] | GI50 [3] | TGI [3] | GI50 [4] | TGI [4] | GI50 [5] | TGI [5] |
| --- | --- | --- | --- | --- | --- | --- | --- | --- | --- | --- |
| C=C1CCC2C3(C)COC(c4cccc(Cl)c4)OC3CCC2(C)C1/C=C/C1=CCOC1=O (stereo unspecified) | > 100 µM | > 100 µM | 6.84 µM | > 100 µM | 1.83 µM | > 100 µM | 3.8 µM | > 100 µM | 9.68 µM | > 100 µM |
| O=[N+]([O-])c1ccc([I+]c2ccccc2)cc1 | 2.25 µM | 25 µM and 6.35 µM | 2.1 µM | 12.9 µM and 4.9 µM | 1.3 µM | 26 µM and 5.04 µM | 2.24 µM | 10.3 µM and 8.25 µM | 1.85 µM | 23.3 µM and 4.33 µM |
| COc1cc2nc(-c3ccc(Cl)cc3)cc(OCCCN3CCC(O)CC3)c2cc1OC | 2.78 µM | 25.9 µM | 0.665 µM | 3.52 µM | 2.26 µM | 12 µM | 1.6 µM | 3.79 µM | 2.05 µM | 5.2 µM |
| C/C(=N\NC(=S)Nc1ccccc1)c1ccccn1 | 0.746 µM | 3.03 µM | 0.0309 µM | 2.61 µM | 0.0168 µM | 6.41 µM | 0.0148 µM | 11.8 µM | 0.67 µM | 4.28 µM |
| O=S(=O)(Nc1ccc2ccc3cccc4ccc1c2c34)c1ccccc1 | – | > 100 µM | – | > 100 µM | – | > 100 µM | – | > 100 µM | – | 24.4 µM |
| CCN(CC)c1ccc(/C=C/C2=[N+](C)c3ccccc3C2(C)C)cc1 | 0.492 µM | 19 µM | 0.701 µM | 6.48 µM | 0.205 µM | 13.8 µM | 0.307 µM | 18.5 µM | 0.288 µM | 4.91 µM |
| COC12c3ccccc3-c3ccccc3C1[C@@H](C(=O)O)[C@H]2C(=O)O (stereo partly specified) | – | > 10 µM | – | > 10 µM | – | > 10 µM | – | > 10 µM | – | > 10 µM |
| Cn1cccc1C1CC(=O)N(CCC[Se]C#N)C1=O (stereo unspecified) | 1.81 µM | 3.78 µM | – | – | 2.78 µM | 12.8 µM | 2.85 µM | 14.6 µM | 1.78 µM | 3.48 µM |
| O=C(O)Cc1ccccc1 | > 1000 µM | > 1000 µM | > 1000 µM | > 2000 µM | > 1000 µM | > 2000 µM | – | > 2000 µM | – | > 2000 µM |
| O=C(/C=C/c1cccnc1)/C=C/c1cccnc1 | 2.57 µM | 6.45 µM | 2.05 µM | 5.8 µM | 2.14 µM | 6.87 µM | 0.379 µM | 1.84 µM | 1.78 µM | 4.84 µM |
| COc1cc2c(cc1OCCCN1CCN(CCCOc3cc4c(cc3OC)C(=O)C3CCC[C@H]3C=N4)CC1)N=C[C@@H]1CCCC1C2=O (stereo partly specified) | 2.41 µM | > 100 µM | 8.44 µM | > 26.6 µM | 15 µM | > 100 µM | 1.44 µM | > 100 µM | 5.89 µM | 30.3 µM |
| COC(=O)Oc1nn(C(=O)OC)c(=O)c2ccccc12 (tested in a mixture with another compound) | – | > 100 µM | – | > 100 µM | – | > 100 µM | – | > 100 µM | – | > 100 µM |
| COC(=O)C1(C)CCc2c(ccc3ccccc23)C1=O (stereo unspecified) | – | > 100 µM | – | > 100 µM | – | 72.8 µM | – | 81.2 µM | – | > 100 µM |
| Cn1cc(-c2csc(-c3cn(C)c4ncccc34)n2)c2ccccc21 | 0.436 µM | 23.5 µM | 2.82 µM | 37.8 µM | – | – | 0.322 µM | > 100 µM | 0.0414 µM | 0.186 µM |
| CC1OC(OC2C(OC3CCC4(C)C(CCC5(C)C4CC=C4C6CC(C)(C)CCC6(CO)C(O)CC45C)C3(C)C)OC(C(=O)O)C(OC3OC(COC4OC(CO)C(O)C(O)C4O)C(O)C(O)C3O)C2O)C(O)C(O)C1O (stereo unspecified) | 13.4 µM | 25.1 µM | 10.8 µM | 21.8 µM | 12.3 µM | 27.8 µM | 11.4 µM | 24.2 µM | 4.34 µM | 14.7 µM |
| O=C1/C(=C\c2ccccc2)CN(C(=O)c2ccccc2F)C/C1=C\c1ccccc1 | 2.73 µM | 6.41 µM | 2 µM | 4.06 µM | 2.57 µM | 8.78 µM | 0.449 µM | 2.07 µM | 1.13 µM | 3.32 µM |
| NC(=NCc1ccccc1)N/N=C\c1ccnc2ccccc12 | – | 32.3 µM | – | 28.2 µM | – | 5.87 µM | – | 25.5 µM | – | 23.9 µM |
| Cn1cc(-c2nonc2-c2cn(C)c3ccc(Br)cc23)c2ccccc21 | 4.09 µM | > 100 µM | 3.67 µM | > 100 µM | – | – | 2.83 µM | > 100 µM | – | – |
| CCOC(=O)c1c(-c2ccccc2)[nH]c2ccccc2c1=O | – | > 100 µM | – | – | – | > 100 µM | – | > 100 µM | – | – |
| CN(C)c1ccc(N=C(C#N)c2nc(N)nc(N3CCOCC3)n2)cc1 | 49.8 µM | > 100 µM | 20.7 µM | 50.5 µM | > 100 µM | > 100 µM | – | – | 53.2 µM | > 100 µM |
